Patent US9937235B2, “Lipidated peptides as anti-obesity agents” (USTAV ORGANICKE CHEMIE A BIOCHEMIE AKADEMIE VED CR, V.V.I, priority 2012, dated 2018)
Where a SMILES comes first, the peptide text is derived from it. [ ]: non-standard residue; d: D form. The star is where a group is joined. 1Nal = N[C@@H](Cc1cccc2ccccc12)C(=O)O; Myristoyl = CCCCCCCCCCCCCC(=O)*; Nle = CCCC[C@H](N)C(=O)O; Octanoyl = CCCCCCCC(=O)*; Dap = NC[C@H](N)C(=O)O

How the values were obtained:
[1] = target: T1, rat PrRP receptor (GPR10) in RC-4B/C cells (Rattus norvegicus, UniProt Q64121); assay: Competitive binding to rat pituitary RC-4B/C cells; details: ^125I-rat PrRP31, RC-4B/C cells
T1 construct: host or cells: RC-4B/C rat pituitary cell line
T1 sequence (Q64121 1-370): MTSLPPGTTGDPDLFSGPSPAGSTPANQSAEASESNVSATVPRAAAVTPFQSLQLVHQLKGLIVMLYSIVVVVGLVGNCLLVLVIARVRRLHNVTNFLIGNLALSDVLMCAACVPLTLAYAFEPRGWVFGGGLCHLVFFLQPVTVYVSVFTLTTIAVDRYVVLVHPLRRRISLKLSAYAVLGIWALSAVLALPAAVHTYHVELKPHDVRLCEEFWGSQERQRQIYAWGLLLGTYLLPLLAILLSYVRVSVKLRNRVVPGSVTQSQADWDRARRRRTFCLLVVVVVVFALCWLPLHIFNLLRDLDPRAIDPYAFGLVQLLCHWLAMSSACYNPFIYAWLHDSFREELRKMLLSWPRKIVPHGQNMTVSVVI

[2] = test system: MAPK/ERK1/2 signaling pathway in RC-4B/C cells; assay: MAPK/ERK1/2 signaling in RC-4B/C cells (Western blot); type: cell-based, rat; details: 10^−6 mol·l^−1, 5 minute incubation
Experimental: RC-4B/C cells, which were used to determine if lipidated PrRP20 analogs are able to initiate the MAPK/ERK1/2 signaling pathway, were grown in 6-well plates up to the optimal density of […]. Seventeen hours before sample harvest, the growth medium was replaced by a serum-free medium lacking epidermal growth factor (EGF). The respective lipidated PrRP analog was added to each well in the final concentration of 10^−6 mol·l^−1. After a 5 minute incubation at 37° C., the plate was placed on ice and each well was rinsed three times with PBS pH 7.4 (137 mmol·l^−1 NaCl, 2.7 mmol·l^−1 KCl, 8 mmol·l^−1 Na2HPO4.2H2O a 1.76 mmol·l^−1 KH2PO4) and cooled to 4° C. […] Samples were collected in at least three independent experiments.
To determine if the lipidated PrRP20 analogs initiated the MAPK/ERK1/2 signaling pathway, Western blot analysis was used. Electrophoresis was performed on 5%/12% polyacrylamide gel in the presence of SDS (SDS-PAGE) on the instrument MiniProtean 3 (BioRad, Herkules, Calif., USA). Samples that were loaded on the gel were first disintegrated by ultrasound, then heated at 100° C. for 2 minutes, and centrifuged for 5 minutes at 500×g at room temperature. […] Electrophoresis was performed at a constant voltage of 100 V for 10 minutes, or for 60 minutes at 150 V.
To show the presence of phosphorylated proteins in the samples, the proteins from the SDS-PAGE gel were transferred to the Immobilon™-P PVDF (polyvinylidene difluoride) membrane (Sigma-Aldrich, USA). The transfer was performed in blotting buffer at pH 8.3 (25 mmol·l^−1 Tris, 192 mmol·l^−1 glycine and 20% methanol) for 20 hours at 4° C. at a constant voltage of 30 V.
After the protein transfer to the PVDF membrane, the membranes were washed for 5 minutes in TBS washing buffer (20 mmol·l^−1 Tris, 140 mmol·l^−1 NaCl and 0.1% Tween-20) and then incubated for 1 hour in blocking buffer (TBS with 5% non-fat milk powder and 5 mmol·l^−1 Na3VO4 and 50 mmol·l^−1 NaF) at room temperature. Further, the membranes were washed three times for 5 minutes using the TBS washing buffer. The membranes were then incubated with the primary antibody against phospho-p44/42 MAPK(Thr202/Tyr204) (Cell Signaling Technology, Beverly, USA) which was diluted in blocking buffer at 1:1000. After the next three washes with the TBS washing buffer for 5 minutes, the membranes were incubated for 1 hour with rabbit secondary antibody labeled with peroxidase (Sigma, St. Louis, USA) which was diluted in blocking buffer at 1:12,000.
The membranes were then washed three times in TBS washing buffer for 5 minutes and then the solution Femto (Pierce SuperSignal, Thermo Fisher Scientific, Rockford, Ill., USA) was applied. The induced chemiluminiscence was detected by a CCD camera (LAS 3000, Fuji Photo Film GmBH, Düsseldorf, Germany).
To assess the initiation of signaling pathways, a densitometric analysis using the program Quantity One (BioRad, Hercules, Calif., USA) was used. For statistical evaluation of the statistically significant response of the cellular signaling, one-way ANOVA with subsequent Dunnett post-hoc test was used. Data was statistically significant at P<0.05.

fasted C57BL/6 mice [3] = assay: Food intake in fasted mice after SC administration; type: in vivo, mouse; details: for food intake / % control: SC administration; for % control: food intake vs saline
In short: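 Male C57BL/6 mice, food-deprived 17 h, received saline, PrRP or lipidated analogs either SC at 1-10 mg/kg or ICV into the third ventricle at 4 nmol/mouse.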

fasted C57BL/6 mice [4] = assay: Food intake in fasted mice after ICV administration; type: in vivo; details: 4 nmol/mouse; for % control: food intake vs saline
Experimental: Male C57BL/6 mice (An Lab, Prague 4) were bred in the accredited animal facility in the Institute of Organic Chemistry and Biochemistry, Czech Academy of Sciences, Prague, at the Institute of Molecular Genetics, Prague 4, at the temperature of 22±2° C. with access to food and water ad libitum. The day/night cycle was 12/12 hours (light turned on at 6:00 am). Animals were treated according to the Animal Protection Act (Act No. 246/1992). The males were fed standard chow diet St-1 (Mlýn Kocanda, Praha, Czech Republic) which contained 66% saccharides, 25% proteins and 9% lipids with a caloric value of 3.4 kcal/g.
The food was withdrawn 17 hours prior to injection of lipidated peptide and free access to water was maintained. The administration of saline, PrRP or lipidated analogs was performed either by SC injection at doses of 1-10 mg/kg (volume 0.2 ml/mouse), or by ICV using infusion pump (cannulae were inserted into the third brain ventricle 4 days before the experiment following the procedure of Maixnerová et al. (Maixnerová et al., 2011)). The single dose of peptide was 4 nmol/mouse (5 μl/mouse).
Fifteen minutes after the lipidated peptide administration, the mice were given pre-weighed food. The food was then weighed every 30 minutes for 5-10 hours. The administration of every dose was performed at least twice and one group of mice consisted of at least 6 mice. The results were presented as % of food intake as compared with the control group injected with saline.
Statistical evaluation was performed using program Graph-Pad Prism Software (San Diego, Calif., USA), and the one-way ANOVA with a subsequent Dunnettovým post-hoc test. The difference in food intake between mice injected with saline and mice injected with the examined peptide were considered statistically significant at P<0.05.

[5] = 45 minutes, dose not stated for these substances
[6] = 300 minutes, dose not stated for these substances

Row | SMILES | % of PrRP31 binding [1] | ERK signaling [2] | food intake (fasted C57BL/6 mice [3]; [5]) | % control (fasted C57BL/6 mice [3]; [5]) | food intake (fasted C57BL/6 mice [3]; [6]) | % control (fasted C57BL/6 mice [3]; [6]) | food intake (fasted C57BL/6 mice [4]; 45 minutes) | % control (fasted C57BL/6 mice [4]; 45 minutes) | food intake (fasted C57BL/6 mice [4]; 300 minutes) | % control (fasted C57BL/6 mice [4]; 300 minutes) | dose dependence of the lowering of food intake (fasted C57BL/6 mice [3]; SC administration, 1, 2, 5 and 10 mg/kg, FIG. 5 and 6) | food intake (fasted C57BL/6 mice [3]; 45 minutes, 10 mg/kg) | % control (fasted C57BL/6 mice [3]; 45 minutes, 10 mg/kg) | food intake (fasted C57BL/6 mice [3]; 300 minutes, 10 mg/kg) | % control (fasted C57BL/6 mice [3]; 300 minutes, 10 mg/kg) | food intake (fasted C57BL/6 mice [3]; 45 minutes, 5 mg/kg) | % control (fasted C57BL/6 mice [3]; 45 minutes, 5 mg/kg) | % control (fasted C57BL/6 mice [3]; 300 minutes, 5 mg/kg)
1 | CCCCCCCC(=O)NC[C@H](N)C(=O)N[C@@H](CCCNC(=N)N)C(=O)N[C@@H](C)C(=O)N[C@@H](Cc1c[nH]cn1)C(=O)N[C@@H](CCC(N)=O)C(=O)N[C@@H](Cc1c[nH]cn1)C(=O)N[C@@H](CO)C(=O)N[C@@H](CCCC)C(=O)N[C@@H](CCC(=O)O)C(=O)N[C@H](C(=O)N[C@@H](CCCNC(=N)N)C(=O)N[C@H](C(=O)N1CCC[C@H]1C(=O)N[C@@H](CC(=O)O)C(=O)N[C@H](C(=O)N[C@@H](CC(N)=O)C(=O)N1CCC[C@H]1C(=O)N[C@@H](C)C(=O)N[C@@H](Cc1c[nH]c2ccccc12)C(=O)N[C@@H](Cc1ccc(O)cc1)C(=O)N[C@H](C(=O)NCC(=O)N[C@@H](CCCNC(=N)N)C(=O)NCC(=O)N[C@H](C(=O)N[C@@H](CCCNC(=N)N)C(=O)N1CCC[C@H]1C(=O)N[C@H](C(=O)NCC(=O)N[C@@H](CCCNC(=N)N)C(=O)N[C@@H](Cc1cccc2ccccc12)C(N)=O)C(C)C)[C@@H](C)CC)[C@@H](C)O)[C@@H](C)CC)[C@@H](C)O)[C@@H](C)O [Analog 8] (H-[Dap](Octanoyl)RAHQHS[Nle]ETRTPDINPAWYTGRGIRPVGR[1Nal]-NH2) | 13% | agonist | 0.17 g | 76% | 0.78 g | 90% | 0.34 g | 60% | 1.05 g | 79% | – | – | – | – | – | – | – | –
2 | CCCCCCCCCCCCCC(=O)NC[C@H](N)C(=O)N[C@@H](CCCNC(=N)N)C(=O)N[C@@H](C)C(=O)N[C@@H](Cc1c[nH]cn1)C(=O)N[C@@H](CCC(N)=O)C(=O)N[C@@H](Cc1c[nH]cn1)C(=O)N[C@@H](CO)C(=O)N[C@@H](CCCC)C(=O)N[C@@H](CCC(=O)O)C(=O)N[C@H](C(=O)N[C@@H](CCCNC(=N)N)C(=O)N[C@H](C(=O)N1CCC[C@H]1C(=O)N[C@@H](CC(=O)O)C(=O)N[C@H](C(=O)N[C@@H](CC(N)=O)C(=O)N1CCC[C@H]1C(=O)N[C@@H](C)C(=O)N[C@@H](Cc1c[nH]c2ccccc12)C(=O)N[C@@H](Cc1ccc(O)cc1)C(=O)N[C@H](C(=O)NCC(=O)N[C@@H](CCCNC(=N)N)C(=O)NCC(=O)N[C@H](C(=O)N[C@@H](CCCNC(=N)N)C(=O)N1CCC[C@H]1C(=O)N[C@H](C(=O)NCC(=O)N[C@@H](CCCNC(=N)N)C(=O)N[C@@H](Cc1cccc2ccccc12)C(N)=O)C(C)C)[C@@H](C)CC)[C@@H](C)O)[C@@H](C)CC)[C@@H](C)O)[C@@H](C)O [Analog 9] (H-[Dap](Myristoyl)RAHQHS[Nle]ETRTPDINPAWYTGRGIRPVGR[1Nal]-NH2) | 167% | agonist | – | – | – | – | 0.28 g | 51% | 1.03 g | 78% | dose dependent | 0.01 g | 2% | 0.22 g | 25% | – | – | –
3 | CCCCCCCCCCCCCC(=O)N[C@H](C(=O)N1CCC[C@H]1C(=O)N[C@@H](CC(=O)O)C(=O)N[C@H](C(=O)N[C@@H](CC(N)=O)C(=O)N1CCC[C@H]1C(=O)N[C@@H](C)C(=O)N[C@@H](Cc1c[nH]c2ccccc12)C(=O)N[C@@H](Cc1ccc(O)cc1)C(=O)N[C@H](C(=O)NCC(=O)N[C@@H](CCCNC(=N)N)C(=O)NCC(=O)N[C@H](C(=O)N[C@@H](CCCNC(=N)N)C(=O)N1CCC[C@H]1C(=O)N[C@H](C(=O)NCC(=O)N[C@@H](CCCNC(=N)N)C(=O)N[C@@H](Cc1ccccc1)C(N)=O)C(C)C)[C@@H](C)CC)[C@@H](C)O)[C@@H](C)CC)[C@@H](C)O [Analog 10] (Myristoyl-TPDINPAWYTGRGIRPVGRF-NH2) | 632% | agonist | – | – | – | – | 0.28 g | 51% | 1.1 g | 86% | – | – | – | – | – | 0.11 g | 32% | 44%
